Assay results published in patent US20260200919A1, “SUBSTITUTED AMINOPYRIDINE COMPOUNDS AND METHODS OF TREATING DISEASE USING SAME” (Atavistik Bio, Inc., priority 2023, published 2026).

Key:
[1] = target: T1, human recombinant kinase full-length wildtype AKT1 (Homo sapiens, UniProt P31749); test: AKT1 kinase assay (wildtype, TR-FRET, Lance); format: biochemical; settings: 0.6 nM wildtype AKT1, 50 nM Ulight-CREBtide, either 50 μM ATP or 2 mM ATP (not specified which), 60 min at RT
T1 construct: Purified human recombinant kinase full-length wildtype AKT1 was expressed in insect cells; made in house; host or cells: insect cells
Experimental: AKT1 kinase assay: Inhibitory effects of compounds on wildtype AKT1 were undertaken in a 10-pt dose response kinase activity assay measuring phospho-peptide product formation based on TR-FRET signal as described in the following paragraph.
(§1) Purified human recombinant kinase full-length wildtype AKT1 was expressed in insect cells and activated in vitro by PDPK1. Ulight™—CREBtide (PerkinElmer, catalog number TRF0107) was used as the peptide substrate. The reaction buffer consisted of 50 mM HEPES pH 7.5, 10 mM MgCl2, 0.01% Triton X-100, 0.01% BSA, 2 mM DTT, 0.6 nM AKT1, 50 nM Ulight™-CREBtide and either 50 μM ATP or 2 mM ATP. The compound solution was prepared as 10 mM DMSO stock. […] Final DMSO concentration in the assay was 1%. […] The reaction was stopped after 60 min of incubation at RT by the addition of 10 μL of Detection Mix (PerkinElmer, #CR97-100) consisting of Europium-anti-phospho-CREB (Ser133) (Perkin Elmer, catalog numberTRF0200). Incubation with the detection mix for a further 60 min allowed binding of antibody to the phospho-Ulight™ CREBtide. The fluorescence emissions at 620 nm and 665 nm after excitation at […] was measured using Envision reader. The ratio of the emissions at 665 nm and at 620 nm provided the measure for the amount of phosphorylated CREBtide product of AKT1 kinase activity.

[2] = target: T2, human recombinant kinase full-length AKT1 E17K (Homo sapiens, UniProt P31749, E17K); test: AKT1 E17K kinase assay (TR-FRET, Lance); format: biochemical; settings: 0.6 nM AKT1 E17K, 50 nM Ulight-CREBtide, either 50 μM ATP or 2 mM ATP (not specified which), 60 min at RT
T2 construct: Purified human recombinant kinase full-length AKT1 E17K was expressed in insect cells; made in house; host or cells: insect cells
Experimental: AKT1 E17K kinase assay: Inhibitory effects of compounds on AKT1 E17K were undertaken in a 10-pt dose response kinase activity assay measuring phospho-peptide product formation based on TR-FRET signal as described in the following paragraph.
as §1, with “full-length” for “full-length wildtype”, “AKT1 E17K” for “AKT1”, “Ulight™-CREBtide” for “Ulight™—CREBtide”, “AKT1 E17K,” for “AKT1,”, “nM. Ulight™ CREBtide” for “nM Ulight™-CREBtide”

T1 sequence (P31749 whole entry): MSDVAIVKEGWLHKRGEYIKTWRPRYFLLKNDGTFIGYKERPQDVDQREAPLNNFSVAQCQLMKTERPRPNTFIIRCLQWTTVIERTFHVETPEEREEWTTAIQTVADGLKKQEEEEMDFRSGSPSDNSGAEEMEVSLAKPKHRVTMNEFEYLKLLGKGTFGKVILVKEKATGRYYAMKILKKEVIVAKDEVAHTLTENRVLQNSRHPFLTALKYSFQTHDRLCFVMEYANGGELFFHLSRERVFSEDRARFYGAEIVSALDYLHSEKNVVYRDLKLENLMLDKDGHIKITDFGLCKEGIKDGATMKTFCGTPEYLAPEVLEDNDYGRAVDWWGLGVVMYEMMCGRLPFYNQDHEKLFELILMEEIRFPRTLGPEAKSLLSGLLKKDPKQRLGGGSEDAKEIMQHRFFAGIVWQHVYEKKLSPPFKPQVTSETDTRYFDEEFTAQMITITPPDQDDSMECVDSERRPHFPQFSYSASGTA
T2 sequence (P31749 whole entry E17K): as the sequence (P31749 whole entry) above, with E17K counted along it

SMILES | IC50 [1] [nM] | IC50 [2] [nM]
Nc1ncccc1-c1nc2ccc(-c3cccnc3)nc2n1-c1ccc(CNC(=O)c2cccc(CC(=O)O)c2)cc1 [Compound 96, 2-(3-((4-(2-(2-aminopyridin-3-yl)-5-(pyridin-3-yl)-3H-imidazo[4,5-b]pyridin-3-yl)benzyl)carbamoyl)phenyl) acetic acid] | < 500 | 200 to 500
COC(=O)Cc1cccc(C(=O)NCc2ccc(-n3c(-c4cccnc4N)nc4cccnc43)cc2)c1 [Compound 100, methyl 2-(3-((4-(2-(2-aminopyridin-3-yl)-3H-imidazo[4,5-b]pyridin-3-yl)benzyl)carbamoyl)phenyl)acetate] | > 500 | > 500
C[C@@H](c1ccc(C(=O)O)cc1F)N1CC(c2ccc(-n3c(-c4cccnc4N)nc4ccc(-c5ccccc5)nc43)cc2)C1 [Compound 159] | < 500 | 200 to 500
Nc1ncccc1-c1nc2ccc(-c3ccccc3)nc2n1-c1ccc(C2CN(Cc3cc(O)c(C(=O)O)c(F)c3)C2)cc1 [Compound 185, 4-((3-(4-(2-(2-aminopyridin-3-yl)-5-phenyl-3H-imidazo[4,5-b]pyridin-3-yl)phenyl)azetidin-1-yl)methyl)-2-fluoro-6-hydroxybenzoic acid] | < 500 | < 50
CC(C)[C@@H](c1ccc(C(=O)O)cc1)N1CC(c2ccc(-n3c(-c4cccnc4N)nc4ccc(-c5ccccc5)nc43)cc2)C1 [Compound 162] | < 500 | 200 to 500
Cc1cc(C(=O)O)ccc1C(=O)Nc1ccc(-n2c(-c3cccnc3N)nc3ccc(-c4ccccc4)nc32)cn1 [Compound 63, 4-[[5-[2-(2-amino-3-pyridyl)-5-phenyl-imidazo[4,5-b]pyridin-3-yl]-2-pyridyl]carbamoyl]-3-methyl-benzoic acid] | < 500 | 200 to 500
Cc1nc(NC(=O)c2cc(F)c(C(=O)O)cc2F)ccc1-n1c(-c2cccnc2N)nc2ccc(-c3ccccc3)nc21 [Compound 147] | < 500 | 50 to 200
C[C@H](c1ccc(C(=O)O)cc1F)N1CC(c2ccc(-n3c(-c4cccnc4N)nc4ccc(-c5ccccc5)nc43)cc2)C1 [Compound 160] | < 500 | 50 to 200
Nc1ncccc1-c1nc2cc(-c3ccc(NC(=O)c4ccccc4)cc3)cnc2n1-c1ccc(CNC(=O)c2cccc(CC(=O)O)c2)cc1 [Compound 86, 2-(3-((4-(2-(2-aminopyridin-3-yl)-6-(4-benzamidophenyl)-3H-imidazo[4,5-b]pyridin-3-yl)benzyl)carbamoyl)phenyl) acetic acid] | < 500 | < 50
Nc1ncccc1-c1nc2ccc(-c3ccccc3)nc2n1-c1ccc(NC(=O)c2cccc(C(=O)O)c2)nc1 [Compound 60, 3-((5-(2-(2-aminopyridin-3-yl)-5-phenyl-3H-imidazo[4,5-b]pyridin-3-yl)pyridin-2-yl)carbamoyl)benzoic acid] | < 500 | < 50
CC(C(=O)O)c1cccc(C(=O)NCc2ccc(-n3c(-c4cccnc4N)nc4ccc(-c5ccccc5)nc43)cc2)n1 (stereo not drawn) [Compound 38, 2-(6-((4-(2-(2-aminopyridin-3-yl)-5-phenyl-3H-imidazo[4,5-b]pyridin-3-yl)benzyl)carbamoyl)pyridin-2-yl) propanoic acid] | > 500 | > 500
Nc1ncccc1-c1nc2ccc(-c3ccccc3)nc2n1-c1ccc(NC(=O)c2ccc(C(=O)O)cc2)nc1 [Compound 59, 4-((5-(2-(2-aminopyridin-3-yl)-5-phenyl-3H-imidazo[4,5-b]pyridin-3-yl)pyridin-2-yl)carbamoyl)benzoic acid] | < 500 | < 50
Cc1cc(C(=O)O)c(F)cc1C(=O)Nc1ccc(-n2c(-c3cccnc3N)nc3ccc(-c4ccccc4)nc32)c(C)n1 [Compound 149] | < 500 | 50 to 200
CC(=O)Nc1ccc(-c2ccc3nc(-c4cccnc4N)n(-c4ccc(CNC(=O)c5cccc(CC(=O)O)c5)cc4)c3n2)cc1 [Compound 80, 2-(3-((4-(5-(4-acetamidophenyl)-2-(2-aminopyridin-3-yl)-3H-imidazo[4,5-b]pyridin-3-yl)benzyl)carbamoyl)phenyl) acetic acid] | < 500 | 200 to 500
Nc1ncccc1-c1nc2cc(C(F)(F)F)cnc2n1-c1ccc(CNC(=O)c2ccc(C(=O)O)cc2)cc1 [Compound 98, 4-((4-(2-(2-aminopyridin-3-yl)-6-(trifluoromethyl)-3H-imidazo[4,5-b]pyridin-3-yl)benzyl)carbamoyl)benzoic acid] | < 500 | > 500
Nc1ncccc1-c1nc2cc(-c3cccnc3)cnc2n1-c1ccc(CNC(=O)c2cccc(CC(=O)O)c2)cc1 [Compound 90, 2-(3-((4-(2-(2-aminopyridin-3-yl)-6-(pyridin-3-yl)-3H-imidazo[4,5-b]pyridin-3-yl)benzyl)carbamoyl)phenyl) acetic acid] | < 500 | > 500
Nc1ncccc1-c1nc2ccc(OC(F)(F)F)cc2n1-c1ccc(NC(=O)c2ccc(C(=O)O)cc2)nc1 [Compound 175, 4-((5-(2-(2-aminopyridin-3-yl)-6-(trifluoromethoxy)-1H-benzo[d]imidazol-1-yl)pyridin-2-yl)carbamoyl)benzoic acid] | > 500 | > 500
CC(=O)Nc1cccc(-c2ccc3nc(-c4cccnc4N)n(-c4ccc(CNC(=O)c5cccc(CC(=O)O)c5)cc4)c3n2)c1 [Compound 81, 2-(3-((4-(5-(3-acetamidophenyl)-2-(2-aminopyridin-3-yl)-3H-imidazo[4,5-b]pyridin-3-yl)benzyl)carbamoyl)phenyl) acetic acid] | < 500 | 50 to 200
CC(=O)Nc1ccc(-c2cnc3c(c2)nc(-c2cccnc2N)n3-c2ccc(CNC(=O)c3cccc(CC(=O)O)c3)cc2)cc1 [Compound 84, 2-(3-((4-(6-(4-acetamidophenyl)-2-(2-aminopyridin-3-yl)-3H-imidazo[4,5-b]pyridin-3-yl)benzyl)carbamoyl)phenyl) acetic acid] | < 500 | 50 to 200
Nc1ncccc1-c1nc2ccc(-c3ccccc3)nc2n1-c1ccc(CNC(=O)c2ccc(CCC(=O)O)cc2)cc1 [Compound 40, 3-(4-((4-(2-(2-aminopyridin-3-yl)-5-phenyl-3H-imidazo[4,5-b]pyridin-3-yl)benzyl)carbamoyl)phenyl) propanoic acid] | < 500 | < 50
Nc1ncccc1-c1nc2ccc(C(F)(F)F)cc2n1-c1ccc(CNC(=O)c2cccc(C(=O)O)c2F)cc1 [Compound 106, 3-((4-(2-(2-aminopyridin-3-yl)-6-(trifluoromethyl)-1H-benzo[d]imidazol-1-yl)benzyl)carbamoyl)-2-fluorobenzoic acid] | > 500 | > 500
COC(=O)Cc1ccc(C(=O)NCc2ccc(-n3c(-c4cccnc4N)nc4cc(-c5cccnc5)cnc43)cc2)cc1 [Compound 87, methyl 2-(4-((4-(2-(2-aminopyridin-3-yl)-6-(pyridin-3-yl)-3H-imidazo[4,5-b]pyridin-3-yl)benzyl)carbamoyl)phenyl)acetate] | < 500 | > 500
Nc1ncccc1-c1nc2ccc(-c3ccccc3)nc2n1-c1ccc(CNC(=O)c2cccc(CCC(=O)O)c2)cc1 [Compound 42, 3-(3-((4-(2-(2-aminopyridin-3-yl)-5-phenyl-3H-imidazo[4,5-b]pyridin-3-yl)benzyl)carbamoyl)phenyl) propanoic acid] | < 500 | 50 to 200
Nc1ncccc1-c1nc2ccc(-c3ccccc3)cc2n1-c1ccc(CNC(=O)c2cccc(CC(=O)O)c2)cc1 [Compound 51, 2-(3-((4-(2-(2-aminopyridin-3-yl)-6-phenyl-1H-benzo[d]imidazol-1-yl)benzyl)carbamoyl)phenyl)acetic acid] | < 500 | 50 to 200
